Data: patent publication US9643976B2, “Solvates of darunavir” (Aurobindo Pharma Ltd., priority 2012, dated 2017)

Experiments:
[1] = hygroscopic testing (solvent content before and after); conditions: for Final (Solvent content): after hygroscopic testing at 25° C.±2° C. and 80% RH±2° C. for 24 h, solvent replaced with water; for Initial (Solvent content): before hygroscopic testing
[2] = hygroscopicity at moderate or high relative humidity at 25° C.; type: physicochemical
From the text: Further, the isolation of Darunavir ethanolate involves special precautions during isolation, drying and powder processing, which is onerous during the large scale manufacturing of Darunavir ethanolate.

SMILES | Final (Solvent content) [1] [%] | Initial (Solvent content) [1] [%] | hygroscopicity / conversion to hydrate [2]
CC(C)CN(C[C@@H](O)[C@H](Cc1ccccc1)NC(=O)O[C@H]1CO[C@H]2OCC[C@H]21)S(=O)(=O)c1ccc(N)cc1 [Darunavir propylene glycolate] | 10.37 | 11.51 | –
CC(C)CN(C[C@@H](O)[C@H](Cc1ccccc1)NC(=O)O[C@H]1CO[C@H]2OCC[C@H]21)S(=O)(=O)c1ccc(N)cc1 [Darunavir ethanolate] | 0.67 | 6.75 | hygroscopic and converts to Darunavir hydrate
